In patent US8536172B2, “Inhibitors of JNK” (Roche Palo Alto LLC, priority 2009, dated 2013):

Assays:
Human JNK1α1 = Human JNK1α1 (Homo sapiens (Human), UniProt P45983); experiment: JNK assay in vitro: phosphorylation of GST-ATF2 (19-96) with [γ-33P] ATP, JNK1; assay type: biochemical; conditions: 2 nM enzyme, 1 μM ATF2, 6 μM ATP (Km), 30° C. 30 min
Procedure: JNK activity was measured by phosphorylation of GST-ATF2 (19-96) with [γ-^33P] ATP. […] Human JNK2α2 assay contains 1 nM enzyme, 1 μM ATF2, 8 μM ATP with 1 uCi [γ-^33P] ATP. Human JNK1α1 assay contains 2 nM enzyme, 1 μM ATF2, 6 μM ATP with 1 μCi [γ-^33P] ATP. […] ATP. The enzyme assay was carried out in the presence or absence of several compound concentrations. JNK and compound were pre-incubated for 10 min., followed by initiation of the enzymatic reaction by adding ATP and the substrate. The reaction mixture was incubated at 30° C. for 30 min. […] The incorporation of ^33P into ATF2 was quantified on a microplate scintillation counter (Packard Topcount). Compound inhibition potency on JNK was measured by IC50 value generated from ten concentration inhibition curves fitted into the 3-parameter model: % inhibition=Maximum/(1+(IC50/[Inhibitor])^slope). Data were analyzed on Microsoft Excel for parameter estimation.

Human JNK2α2 = Human JNK2α2 (Homo sapiens (Human), UniProt P45984); experiment: JNK assay in vitro: phosphorylation of GST-ATF2 (19-96) with [γ-33P] ATP, JNK2; assay type: biochemical; conditions: 1 nM enzyme, 1 μM ATF2, 8 μM ATP (Km), 30° C. 30 min
Human JNK2α2, sequence (P45984 whole entry): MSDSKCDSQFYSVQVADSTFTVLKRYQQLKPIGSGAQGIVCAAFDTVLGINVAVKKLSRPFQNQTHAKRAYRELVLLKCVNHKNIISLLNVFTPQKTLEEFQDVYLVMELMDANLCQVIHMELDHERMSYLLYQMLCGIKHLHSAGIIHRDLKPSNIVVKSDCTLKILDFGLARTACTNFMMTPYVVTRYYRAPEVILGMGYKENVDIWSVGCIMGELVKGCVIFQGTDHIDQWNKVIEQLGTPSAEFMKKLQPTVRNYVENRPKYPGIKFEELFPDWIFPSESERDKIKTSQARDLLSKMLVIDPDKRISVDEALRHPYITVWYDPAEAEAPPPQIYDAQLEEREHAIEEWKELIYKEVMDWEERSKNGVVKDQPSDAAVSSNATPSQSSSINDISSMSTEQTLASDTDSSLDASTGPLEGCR
Procedure: JNK activity was measured by phosphorylation of GST-ATF2 (19-96) with [γ-^33P] ATP. […] Human JNK2α2 assay contains 1 nM enzyme, 1 μM ATF2, 8 μM ATP with 1 uCi [γ-^33P] ATP. Human JNK1α1 assay contains 2 nM enzyme, 1 μM ATF2, 6 μM ATP with 1 μCi [γ-^33P] ATP. Human JNK3 (Upstate Biotech #14-501M) assay contains 2 nM enzyme, 1 μM ATF2, 4 μM ATP with 1 μCi [γ-^33P] ATP. The enzyme assay was carried out in the presence or absence of several compound concentrations. JNK and compound were pre-incubated for 10 min., followed by initiation of the enzymatic reaction by adding ATP and the substrate. The reaction mixture was incubated at 30° C. for 30 min. At the end of incubation, the reaction was terminated by transferring 25 μl of the reaction mixture to 150 μl of 10% glutathione Sepharose® slurry (Amersham #27-4574-01) containing 135 mM EDTA. The reaction product was captured on the affinity resin, and washed on a filtration plate (Millipore, MABVNOB50) with phosphate buffered saline for six times to remove free radionucleotide. The incorporation of ^33P into ATF2 was quantified on a microplate scintillation counter (Packard Topcount). Compound inhibition potency on JNK was measured by IC50 value generated from ten concentration inhibition curves fitted into the 3-parameter model: % inhibition=Maximum/(1+(IC50/[Inhibitor])^slope). Data were analyzed on Microsoft Excel for parameter estimation.

Human JNK1α1, sequence (P45983 other isoform, or with tags, fused parts or gaps): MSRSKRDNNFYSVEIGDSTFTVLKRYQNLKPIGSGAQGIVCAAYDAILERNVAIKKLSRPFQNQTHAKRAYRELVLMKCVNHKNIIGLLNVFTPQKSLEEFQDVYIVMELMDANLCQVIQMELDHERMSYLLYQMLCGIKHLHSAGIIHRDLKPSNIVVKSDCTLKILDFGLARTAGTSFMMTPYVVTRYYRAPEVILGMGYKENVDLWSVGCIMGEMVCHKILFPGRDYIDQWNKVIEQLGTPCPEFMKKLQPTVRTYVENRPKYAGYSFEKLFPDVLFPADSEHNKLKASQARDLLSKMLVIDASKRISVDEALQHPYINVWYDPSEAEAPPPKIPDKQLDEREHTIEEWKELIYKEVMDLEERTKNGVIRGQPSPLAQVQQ

SMILES	IC50 (Human JNK1α1) [nM]	IC50 (Human JNK2α2) [nM]
CS(=O)(=O)C[C@H]1CC[C@H](Nc2nccc(-n3ccc4c(N5CCN(C(=O)CC#N)CC5)cccc43)n2)CC1 [Compound I-42, 3-(4-{1-[2-(4-Methanesulfonylmethyl-cyclohexylamino)-pyrimidin-4-yl]-1H-indol-4-yl}-piperazin-1-yl)-3-oxo-propionitrile]	2.4	13.6
CS(=O)(=O)N[C@H]1CC[C@H](Nc2nccc(-n3ccc4c(N5CCC(S(C)(=O)=O)CC5)cccc43)n2)CC1 [Compound I-6, N-(4-{4-[4-(4-Methanesulfonyl-piperidin-1-yl)-indol-1-yl]-pyrimidin-2-ylamino}-cyclohexyl)-methanesulfonamide]	3	23.5
CC(=O)N1CCN(c2cccc3c2ccn3-c2ccnc(N[C@H]3CC[C@H](N(C)S(C)(=O)=O)CC3)n2)CC1 [Compound I-5, N-(4-{4-[4-(4-Acetyl-piperazin-1-yl)-indol-1-yl]-pyrimidin-2-ylamino}-cyclohexyl)-N-methyl-methanesulfonamide]	10.3	105
CC(C)(O)[C@H]1CC[C@H](Nc2nccc(-n3ccc4c(N5CCC(S(C)(=O)=O)CC5)cccc43)n2)CC1 [Compound I-14, 2-(4-{4-[4-(4-Methanesulfonyl-piperidin-1-yl)-indol-1-yl]-pyrimidin-2-ylamino}-cyclohexyl)-propan-2-ol]	3	19.2
CN(C)CC(=O)N1CCN(c2cccc3c2ccn3-c2ccnc(N[C@H]3CC[C@H](NS(C)(=O)=O)CC3)n2)CC1 [Compound I-23, N-[4-(4-{4-[4-(2-Dimethylamino-acetyl)-piperazin-1-yl]-indol-1-yl}-pyrimidin-2-ylamino)-cyclohexyl]-methanesulfonamide]	378	1630
CS(=O)(=O)N[C@H]1CC[C@H](Nc2nccc(-n3ccc4c(N5CCN(C(=O)CN)CC5)cccc43)n2)CC1 [Compound I-24, N-[4-(4-{4-[4-(2-Amino-acetyl)-piperazin-1-yl]-indol-1-yl}-pyrimidin-2-ylamino)-cyclohexyl]-methanesulfonamide]	77.7	477
N#CCC(=O)O[C@H]1CCC[C@H](Nc2nccc(-n3ccc4c(N5CCN(C(=O)CC#N)CC5)cccc43)n2)C1 [Compound I-36, Cyano-acetic acid (1S,3S)-3-(4-{4-[4-(2-cyano-acetyl)-piperazin-1-yl]-indol-1-yl}-pyrimidin-2-ylamino)-cyclohexyl ester]		168
N#CCC(=O)N1CCN(c2cccc3c2ccn3-c2ccnc(N[C@@H]3CC[C@H](O)C3)n2)CC1 [Compound I-59, 3-(4-{1-[2-((1R,3S)-3-Hydroxy-cyclopentylamino)-pyrimidin-4-yl]-1H-indol-4-yl}-piperazin-1-yl)-3-oxo-propionitrile]		570
CS(=O)(=O)N(CCO)[C@H]1CC[C@H](Nc2nccc(-n3ccc4c(N5CCN(C(=O)CC#N)CC5)cccc43)n2)CC1 [Compound I-44, N-[4-(4-{4-[4-(2-Cyano-acetyl)-piperazin-1-yl]-indol-1-yl}-pyrimidin-2-ylamino)-cyclohexyl]-N-(2-hydroxy-ethyl)-methanesulfonamide]		19.2
CS(=O)(=O)C1CCN(c2cccc3c2ccn3-c2ccnc(N[C@H]3CC[C@H](C(=O)N4CCN(C5CC5)CC4)CC3)n2)CC1 [Compound I-47, (4-Cyclopropyl-piperazin-1-yl)-(4-{4-[4-(4-methanesulfonyl-piperidin-1-yl)-indol-1-yl]-pyrimidin-2-ylamino}-cyclohexyl)-methanone]		29.6
CC(=O)N1CCN(c2cccc3c2ccn3-c2ccnc(N[C@H]3CC[C@H](CN4CC[C@@H](O)C4)CC3)n2)CC1 [Compound I-29, 1-[4-(1-{2-[4-((R)-3-Hydroxy-pyrrolidin-1-ylmethyl)-cyclohexylamino]-pyrimidin-4-yl}-1H-indol-4-yl)-piperazin-1-yl]-ethanone]		525
N#CCC(=O)N1CCN(c2cccc3c2ccn3-c2ccnc(N[C@H]3CC[C@H](CN4CC[C@H](O)C4)CC3)n2)CC1 [Compound I-28, 3-[4-(1-{2-[4-((S)-3-Hydroxy-pyrrolidin-1-ylmethyl)-cyclohexylamino]-pyrimidin-4-yl}-1H-indol-4-yl)-piperazin-1-yl]-3-oxo-propionitrile]		55.5
CS(=O)(=O)C1CCN(c2cccc3c2ccn3-c2ccnc(N[C@H]3CC[C@H](C(=O)N4CCN5CCCC5C4)CC3)n2)CC1 (stereo partly drawn) [Compound I-52, (Hexahydro-pyrrolo[1,2-a]pyrazin-2-yl)-(4-{4-[4-(4-methanesulfonyl-piperidin-1-yl)-indol-1-yl]-pyrimidin-2-ylamino}-cyclohexyl)-methanone]		21.8
N#CCC(=O)N1CCN(c2cccc3c2ccn3-c2ccnc(N[C@@H]3CC[C@@H](O)C3)n2)CC1 [Compound I-61, 3-(4-{1-[2-((1R,3R)-3-Hydroxy-cyclopentylamino)-pyrimidin-4-yl]-1H-indol-4-yl}-piperazin-1-yl)-3-oxo-propionitrile]		105
CC(=O)N1CCN(c2cccc3c2ccn3-c2ccnc(N[C@H]3CC[C@H](C(C)(C)O)CC3)n2)CC1 [Compound I-43, 1-[4-(1-{2-[4-(1-Hydroxy-1-methyl-ethyl)-cyclohexylamino]-pyrimidin-4-yl}-1H-indol-4-yl)-piperazin-1-yl]-ethanone]		432
N#CCC(=O)N1CCN(c2cccc3c2ccn3-c2ccnc(N[C@H]3CCC[C@H](O)C3)n2)CC1 [Compound I-34, 3-(4-{1-[2-((1S,3S)-3-Hydroxy-cyclohexylamino)-pyrimidin-4-yl]-1H-indol-4-yl}-piperazin-1-yl)-3-oxo-propionitrile]		89.2
CCOC1CCN(C(=O)[C@H]2CC[C@H](Nc3nccc(-n4ccc5c(N6CCC(S(C)(=O)=O)CC6)cccc54)n3)CC2)CC1 [Compound I-30, (4-Ethoxy-piperidin-1-yl)-(4-{4-[4-(4-methanesulfonyl-piperidin-1-yl)-indol-1-yl]-pyrimidin-2-ylamino}-cyclohexyl)-methanone]		82.7
CC(=O)N1CCN(c2cccc3c2c(C(N)=O)cn3-c2ccnc(N[C@H]3CC[C@H](CS(C)(=O)=O)CC3)n2)CC1 [Compound I-64, 4-(4-Acetyl-piperazin-1-yl)-1-[2-(4-methanesulfonylmethyl-cyclohexylamino)-pyrimidin-4-yl]-1H-indole-3-carboxylic acid amide]		13.9
N#CCC(=O)N1CCN(c2cccc3c2ccn3-c2ccnc(NC3CCCCC3)n2)CC1 [Compound I-38, 3-{4-[1-(2-Cyclohexylamino-pyrimidin-4-yl)-1H-indol-4-yl]-piperazin-1-yl}-3-oxo-propionitrile]		42.8
CC(C)(O)[C@H]1CC[C@H](Nc2nccc(-n3ccc4c(N5CCN(C(=O)CC#N)CC5)cccc43)n2)CC1 [Compound I-45, 3-[4-(1-{2-[4-(1-Hydroxy-1-methyl-ethyl)-cyclohexylamino]-pyrimidin-4-yl}-1H-indol-4-yl)-piperazin-1-yl]-3-oxo-propionitrile]		33.4
CS(=O)(=O)N[C@H]1CC[C@H](Nc2nccc(-n3ccc4c(N5CCN(S(N)(=O)=O)CC5)cccc43)n2)CC1 [Compound I-8, 4-{1-[2-(4-Methanesulfonylamino-cyclohexylamino)-pyrimidin-4-yl]-1H-indol-4-yl}-piperazine-1-sulfonic acid amide]		82.3
N#CCC(=O)N1CCN(c2cccc3c2ccn3-c2ccnc(N[C@H]3CC[C@@H](O)C3)n2)CC1 [Compound I-58, 3-(4-{1-[2-((1S,3R)-3-Hydroxy-cyclopentylamino)-pyrimidin-4-yl]-1H-indol-4-yl}-piperazin-1-yl)-3-oxo-propionitrile]		806
N#CCC(=O)N1CCN(c2cccc3c2ccn3-c2ccnc(N[C@H]3CC[C@H](O)C3)n2)CC1 [Compound I-60, 3-(4-{1-[2-((1S,3S)-3-Hydroxy-cyclopentylamino)-pyrimidin-4-yl]-1H-indol-4-yl}-piperazin-1-yl)-3-oxo-propionitrile]		150
CS(=O)(=O)N[C@H]1CC[C@H](Nc2nccc(-n3ccc4c(N5CCN(C(N)=O)CC5)cccc43)n2)CC1 [Compound I-7, 4-{1-[2-(4-Methanesulfonylamino-cyclohexylamino)-pyrimidin-4-yl]-1H-indol-4-yl}-piperazine-1-carboxylic acid amide]		86.1
